Reference: EP0908457B1, “3-(1,2-benzisothiazol- and isoxazol-5-Y1)-2,4(1H,3H)-pyrimidinedione or thione and 3-(1,2-benzisothiazol- and isoxazol-5-y1)-4(3H)-pyrimidinone or thione herbicidal agents” (BASF AKTIENGESELLSCHAFT, priority 1997, dated 1999)

Key:
[1] = system: Monochoria vaginalis, Presl.; assay: Postemergence weed control under flooded paddy conditions, MOOVA (Monochoria); format: in vivo; conditions: rated three to four weeks after treatment
[2] = system: Echinochloa oryzoides (Ard.) Fritsch.; assay: Postemergence weed control under flooded paddy conditions, ECHORC (Watergrass (Calif.)); format: in vivo; conditions: rated three to four weeks after treatment
[3] = system: Echinochloa oryzoides (Ard.) Fritsch.; assay: Preemergence weed control under flooded paddy conditions, ECHORC (Watergrass (Calif.)); format: in vivo; conditions: preemergence, flooded paddy, rated three to four weeks after treatment; for herbicidal effect rating, ECHORC: meaning of each grade not given here
[4] = system: Oryza sativa, (L.) Tebonnet; assay: Rice tolerance to post-transplant applications under flooded paddy conditions (Example 187), ORYSAT (Rice, Tebonnet); conditions: rated three to four weeks after treatment
[5] = system: Oryza sativa, (L.) Tebonnet; assay: Rice tolerance to post-transplant applications under flooded paddy conditions (Example 188), ORYSAT (Rice, Tebonnet); conditions: rated three to four weeks after treatment
[6] = system: Cyperus iria; assay: Postemergence weed control under flooded paddy conditions, CYPIR (Rice Flatsedge); format: in vivo; conditions: rated three to four weeks after treatment
[7] = system: Monochoria vaginalis, Presl.; assay: Preemergence weed control under flooded paddy conditions, MOOVA (Monochoria); format: in vivo; conditions: preemergence, flooded paddy, rated three to four weeks after treatment; for herbicidal effect rating, MOOVA: meaning of each grade not given here
[8] = system: Cyperus serotinus, Rottb.; assay: Postemergence weed control under flooded paddy conditions, CYPSE (Flatsedge); format: in vivo; conditions: rated three to four weeks after treatment
[9] = system: Sagittaria pygmaea, L.; assay: Postemergence weed control under flooded paddy conditions, SAGPY (Arrowhead (Pygmaea)); format: in vivo; conditions: rated three to four weeks after treatment
[10] = system: Sagittaria pygmaea, L.; assay: Preemergence weed control under flooded paddy conditions, SAGPY (Arrowhead (Pygmaea)); format: in vivo; conditions: preemergence, flooded paddy, rated three to four weeks after treatment; for herbicidal effect rating, SAGPY: meaning of each grade not given here
[11] = system: Cyperus serotinus, Rottb.; assay: Preemergence weed control under flooded paddy conditions, CYPSE (Flatsedge); format: in vivo; conditions: preemergence, rated three to four weeks after treatment; for herbicidal effect rating, CYPSE: meaning of each grade not given here
[12] = system: Cyperus iria; assay: Preemergence weed control under flooded paddy conditions, CYPIR (Rice Flatsedge); format: in vivo; conditions: preemergence, flooded paddy, rated three to four weeks after treatment; for herbicidal effect rating, CYPIR: meaning of each grade not given here

Structure (SMILES): Cn1c(C(F)(F)F)cc(=O)n(-c2ccc3snc(-c4ccccc4)c3c2)c1=O [Example 4, 1-Methyl-3-(3-phenyl-1,2-benzisothiazol-5-yl)-6-(trifluoromethyl)-2,4(1H,3H)-pyrimidinedione]
- herbicidal effect rating, MOOVA ([1]; Rate 0.0313 kg/ha): 8.0
- herbicidal effect rating, MOOVA ([1]; Rate 0.0625 kg/ha): 9.0
- herbicidal effect rating, MOOVA ([1]; Rate 0.1250 kg/ha): 9.0
- herbicidal effect rating, MOOVA ([1]; Rate 0.2500 kg/ha): 9.0
- herbicidal effect rating, MOOVA ([1]; Rate 0.5000 kg/ha): 9.0
- herbicidal effect rating, ECHORC ([2]; Rate 0.0313 kg/ha): 7.0
- herbicidal effect rating, ECHORC ([2]; Rate 0.0625 kg/ha): 9.0
- herbicidal effect rating, ECHORC ([2]; Rate 0.1250 kg/ha): 9.0
- herbicidal effect rating, ECHORC ([2]; Rate 0.2500 kg/ha): 9.0
- herbicidal effect rating, ECHORC ([2]; Rate 0.5000 kg/ha): 9.0
- herbicidal effect rating, ECHORC ([3]; 0.0313 kg/ha): 9.0
- herbicidal effect rating, ECHORC ([3]; 0.0625 kg/ha): 9.0
- herbicidal effect rating, ECHORC ([3]; 0.1250 kg/ha): 9.0
- herbicidal effect rating, ECHORC ([3]; 0.2500 kg/ha): 9.0
- herbicidal effect rating, ECHORC ([3]; 0.5000 kg/ha): 9.0
- herbicidal effect rating, ORYSAT (rice tolerance) ([4]; 0.0313 kg/ha): 4.0
- herbicidal effect rating, ORYSAT (rice tolerance) ([4]; 0.0625 kg/ha): 7.0
- herbicidal effect rating, ORYSAT (rice tolerance) ([4]; 0.1250 kg/ha): 7.0
- herbicidal effect rating, ORYSAT (rice tolerance) ([4]; 0.2500 kg/ha): 8.0
- herbicidal effect rating, ORYSAT (rice tolerance) ([4]; 0.5000 kg/ha): 8.0
- herbicidal effect rating, ORYSAT (rice tolerance) ([5]; Rate 0.0313 kg/ha): 3.0
- herbicidal effect rating, ORYSAT (rice tolerance) ([5]; Rate 0.0625 kg/ha): 4.0
- herbicidal effect rating, ORYSAT (rice tolerance) ([5]; Rate 0.1250 kg/ha): 7.0
- herbicidal effect rating, ORYSAT (rice tolerance) ([5]; Rate 0.2500 kg/ha): 8.0
- herbicidal effect rating, ORYSAT (rice tolerance) ([5]; Rate 0.5000 kg/ha): 8.0
- herbicidal effect rating, CYPIR ([6]; Rate 0.0313 kg/ha): 8.0
- herbicidal effect rating, CYPIR ([6]; Rate 0.0625 kg/ha): 9.0
- herbicidal effect rating, CYPIR ([6]; Rate 0.1250 kg/ha): 9.0
- herbicidal effect rating, CYPIR ([6]; Rate 0.2500 kg/ha): 9.0
- herbicidal effect rating, CYPIR ([6]; Rate 0.5000 kg/ha): 9.0
- herbicidal effect rating, MOOVA ([7]; 0.0313 kg/ha): 9.0
- herbicidal effect rating, MOOVA ([7]; 0.0625 kg/ha): 9.0
- herbicidal effect rating, MOOVA ([7]; 0.1250 kg/ha): 9.0
- herbicidal effect rating, MOOVA ([7]; 0.2500 kg/ha): 9.0
- herbicidal effect rating, MOOVA ([7]; 0.5000 kg/ha): 9.0
- herbicidal effect rating, CYPSE ([8]; Rate 0.0313 kg/ha): 2.0
- herbicidal effect rating, CYPSE ([8]; Rate 0.0625 kg/ha): 4.0
- herbicidal effect rating, CYPSE ([8]; Rate 0.1250 kg/ha): 7.0
- herbicidal effect rating, CYPSE ([8]; Rate 0.2500 kg/ha): 7.0
- herbicidal effect rating, CYPSE ([8]; Rate 0.5000 kg/ha): 9.0
- herbicidal effect rating, SAGPY ([9]; Rate 0.0313 kg/ha): 3.0
- herbicidal effect rating, SAGPY ([9]; Rate 0.0625 kg/ha): 2.0
- herbicidal effect rating, SAGPY ([9]; Rate 0.1250 kg/ha): 6.0
- herbicidal effect rating, SAGPY ([9]; Rate 0.2500 kg/ha): 9.0
- herbicidal effect rating, SAGPY ([9]; Rate 0.5000 kg/ha): 9.0
- herbicidal effect rating, SAGPY ([10]; 0.0313 kg/ha): 2.0
- herbicidal effect rating, SAGPY ([10]; 0.0625 kg/ha): 2.0
- herbicidal effect rating, SAGPY ([10]; 0.1250 kg/ha): 6.0
- herbicidal effect rating, SAGPY ([10]; 0.2500 kg/ha): 9.0
- herbicidal effect rating, SAGPY ([10]; 0.5000 kg/ha): 9.0
- herbicidal effect rating, CYPSE ([11]; 0.0625 kg/ha): 2.0
- herbicidal effect rating, CYPSE ([11]; 0.1250 kg/ha): 9.0
- herbicidal effect rating, CYPSE ([11]; 0.2500 kg/ha): 9.0
- herbicidal effect rating, CYPSE ([11]; 0.5000 kg/ha): 9.0
- herbicidal effect rating, CYPIR ([12]; 0.0313 kg/ha): 9.0
- herbicidal effect rating, CYPIR ([12]; 0.0625 kg/ha): 9.0
- herbicidal effect rating, CYPIR ([12]; 0.1250 kg/ha): 9.0
- herbicidal effect rating, CYPIR ([12]; 0.2500 kg/ha): 9.0
- herbicidal effect rating, CYPIR ([12]; 0.5000 kg/ha): 9.0

Structure (SMILES): COc1c(-c2nsc3ccc(-n4c(=O)cc(C(F)(F)F)n(C)c4=O)cc23)ccc(C)c1C [Example 267, 2,4(1H,3H)-Pyrimidinedione, 3-[3-(2-methoxy-3,4-xylyl)-1,2-benzisothiazol-5-yl]-1-methyl-6-(trifluoromethyl)-]
- herbicidal effect rating, MOOVA ([1]; Rate 0.0320 kg/ha): 9.0
- herbicidal effect rating, MOOVA ([1]; Rate 0.0620 kg/ha): 9.0
- herbicidal effect rating, MOOVA ([1]; Rate 0.1250 kg/ha): 9.0
- herbicidal effect rating, MOOVA ([1]; Rate 0.2500 kg/ha): 9.0
- herbicidal effect rating, ECHORC ([2]; Rate 0.0320 kg/ha): 4.0
- herbicidal effect rating, ECHORC ([2]; Rate 0.0620 kg/ha): 8.0
- herbicidal effect rating, ECHORC ([2]; Rate 0.1250 kg/ha): 9.0
- herbicidal effect rating, ECHORC ([2]; Rate 0.2500 kg/ha): 9.0
- ECHORC herbicidal effect rating ([3]; Rate 0.0320 kg/ha): 9.0
- ECHORC herbicidal effect rating ([3]; Rate 0.0620 kg/ha): 9.0
- ECHORC herbicidal effect rating ([3]; Rate 0.1250 kg/ha): 9.0
- ECHORC herbicidal effect rating ([3]; Rate 0.2500 kg/ha): 9.0
- ORYSAT herbicidal effect rating ([4]; Rate 0.0320 kg/ha): 2.0
- ORYSAT herbicidal effect rating ([4]; Rate 0.0620 kg/ha): 3.0
- ORYSAT herbicidal effect rating ([4]; Rate 0.1250 kg/ha): 4.5
- ORYSAT herbicidal effect rating ([4]; Rate 0.2500 kg/ha): 6.0
- herbicidal effect rating, ORYSAT (rice tolerance) ([5]; Rate 0.0320 kg/ha): 2.0
- herbicidal effect rating, ORYSAT (rice tolerance) ([5]; Rate 0.0620 kg/ha): 5.0
- herbicidal effect rating, ORYSAT (rice tolerance) ([5]; Rate 0.1250 kg/ha): 6.0
- herbicidal effect rating, ORYSAT (rice tolerance) ([5]; Rate 0.2500 kg/ha): 7.0
- herbicidal effect rating, CYPIR ([6]; Rate 0.0320 kg/ha): 9.0
- herbicidal effect rating, CYPIR ([6]; Rate 0.0620 kg/ha): 9.0
- herbicidal effect rating, CYPIR ([6]; Rate 0.1250 kg/ha): 9.0
- herbicidal effect rating, CYPIR ([6]; Rate 0.2500 kg/ha): 9.0
- MOOVA herbicidal effect rating ([7]; Rate 0.0320 kg/ha): 7.5
- MOOVA herbicidal effect rating ([7]; Rate 0.0620 kg/ha): 9.0
- MOOVA herbicidal effect rating ([7]; Rate 0.1250 kg/ha): 9.0
- MOOVA herbicidal effect rating ([7]; Rate 0.2500 kg/ha): 9.0
- herbicidal effect rating, CYPSE ([8]; Rate 0.0320 kg/ha): 0.0
- herbicidal effect rating, CYPSE ([8]; Rate 0.0620 kg/ha): 0.0
- herbicidal effect rating, CYPSE ([8]; Rate 0.1250 kg/ha): 0.0
- herbicidal effect rating, CYPSE ([8]; Rate 0.2500 kg/ha): 0.0
- herbicidal effect rating, SAGPY ([9]; Rate 0.0320 kg/ha): 0.0
- herbicidal effect rating, SAGPY ([9]; Rate 0.0620 kg/ha): 0.0
- herbicidal effect rating, SAGPY ([9]; Rate 0.1250 kg/ha): 0.0
- herbicidal effect rating, SAGPY ([9]; Rate 0.2500 kg/ha): 0.0
- SAGPY herbicidal effect rating ([10]; Rate 0.0320 kg/ha): 0.0
- SAGPY herbicidal effect rating ([10]; Rate 0.0620 kg/ha): 1.0
- SAGPY herbicidal effect rating ([10]; Rate 0.1250 kg/ha): 3.0
- SAGPY herbicidal effect rating ([10]; Rate 0.2500 kg/ha): 5.0
- CYPSE herbicidal effect rating ([11]; Rate 0.0320 kg/ha): 0.0
- CYPSE herbicidal effect rating ([11]; Rate 0.0620 kg/ha): 0.0
- CYPSE herbicidal effect rating ([11]; Rate 0.1250 kg/ha): 5.5
- CYPSE herbicidal effect rating ([11]; Rate 0.2500 kg/ha): 9.0
- CYPIR herbicidal effect rating ([12]; Rate 0.0320 kg/ha): 8.0
- CYPIR herbicidal effect rating ([12]; Rate 0.0620 kg/ha): 8.0
- CYPIR herbicidal effect rating ([12]; Rate 0.1250 kg/ha): 9.0
- CYPIR herbicidal effect rating ([12]; Rate 0.2500 kg/ha): 9.0
